Results taken from patent US20040121028A1, “Plant based agents as bioavailability / bioefficacy enhancers for drugs and nutraceuticals” (COUNCIL OF SCIENTIFIC AND INDUSTRIAL RESEARCH, priority 2002, published 2004).

Experiment: Enhancement in bioavailability of drugs by the Cuminum cyminum active molecule / fraction
[1] = drug given with Active molecule (3′,5-dihydroxy flavone-7-O-β-D-galacturonide-4′-O-β-D-glucopyranoside)
[2] = drug given with Fraction from Cuminum cyminum

O=c1[nH]cc(F)c(=O)[nH]1 [5-Fluorouracil]
% Enhancement in bioavailability [1]: 110% | % Enhancement in bioavailability [2]: 240%

Nc1nc2c(ncn2COCCO)c(=O)[nH]1 [Acyclovir]
% Enhancement in bioavailability [1]: 89% | % Enhancement in bioavailability [2]: 110%

Cc1nnc2n1-c1ccc(Cl)cc1C(c1ccccc1)=NC2 [Alprazolam]
% Enhancement in bioavailability [1]: 70% | % Enhancement in bioavailability [2]: 75%

NCC[C@H](O)C(=O)N[C@@H]1C[C@H](N)[C@@H](O[C@H]2O[C@H](CN)[C@@H](O)[C@H](O)[C@H]2O)[C@H](O)[C@H]1O[C@H]1O[C@H](CO)[C@@H](O)[C@H](N)[C@H]1O [Amikacin]
% Enhancement in bioavailability [1]: 76% | % Enhancement in bioavailability [2]: 87%

CCOC(=O)C1=C(COCCN)NC(C)=C(C(=O)OC)C1c1ccccc1Cl (stereo not drawn) [Amlodipine]
% Enhancement in bioavailability [1]: 80% | % Enhancement in bioavailability [2]: 130%

CC1(C)S[C@@H]2[C@H](NC(=O)[C@H](N)c3ccc(O)cc3)C(=O)N2[C@H]1C(=O)O [Amoxycillin]
% Enhancement in bioavailability [1]: 68% | % Enhancement in bioavailability [2]: 105%

C[C@@H]1[C@H](O)[C@@H](C)/C=C/C=C/C=C/C=C/C=C/C=C/C=C/[C@H](O[C@@H]2O[C@H](C)[C@@H](O)[C@H](N)[C@@H]2O)C[C@@H]2O[C@](O)(C[C@@H](O)C[C@@H](O)[C@H](O)CC[C@@H](O)C[C@@H](O)CC(=O)O[C@H]1C)C[C@H](O)[C@H]2C(=O)O [Amphotericin B]
% Enhancement in bioavailability [1]: 95% | % Enhancement in bioavailability [2]: 90%

CC[C@H]1OC(=O)[C@H](C)[C@@H](O[C@H]2C[C@@](C)(OC)[C@@H](O)[C@H](C)O2)[C@H](C)[C@@H](O[C@@H]2O[C@H](C)C[C@H](N(C)C)[C@H]2O)[C@](C)(O)C[C@@H](C)CN(C)[C@H](C)[C@@H](O)[C@]1(C)O [Azithromycin]
% Enhancement in bioavailability [1]: 82% | % Enhancement in bioavailability [2]: 115%

CN(Cc1cc(Br)cc(Br)c1N)C1CCCCC1 [Bromhexine]
% Enhancement in bioavailability [2]: 35%

CC1=C(C(=O)O)N2C(=O)[C@@H](NC(=O)[C@H](N)c3ccc(O)cc3)[C@H]2SC1 [Cefadroxil]
% Enhancement in bioavailability [1]: 85% | % Enhancement in bioavailability [2]: 120%

CO/N=C(\C(=O)N[C@@H]1C(=O)N2C(C(=O)O)=C(CSc3nc(=O)c(O)nn3C)CS[C@H]12)c1csc(N)n1 [Cefatrioxone]
% Enhancement in bioavailability [1]: 75% | % Enhancement in bioavailability [2]: 100%

CN/C(=N/CCSCc1nc[nH]c1C)NC#N [Cimetidine]
% Enhancement in bioavailability [1]: 76% | % Enhancement in bioavailability [2]: 70%

N[C@@H]1CON=C1O [Cycloserine]
% Enhancement in bioavailability [1]: 85% | % Enhancement in bioavailability [2]: 110%

Nc1ccc(S(=O)(=O)c2ccc(N)cc2)cc1 [Dapsone]
% Enhancement in bioavailability [1]: 67% | % Enhancement in bioavailability [2]: 93%

O=C(O)Cc1ccccc1Nc1c(Cl)cccc1Cl [Diclofenac]
% Enhancement in bioavailability [1]: 105% | % Enhancement in bioavailability [2]: 125%

COc1cccc2c1C(=O)c1c(O)c3c(c(O)c1C2=O)C[C@@](O)(C(=O)CO)C[C@@H]3O[C@H]1C[C@H](N)[C@H](O)[C@H](C)O1 [Doxorubicin]
% Enhancement in bioavailability [1]: 78% | % Enhancement in bioavailability [2]: 90%

CC[C@H]1OC(=O)[C@H](C)[C@@H](O[C@H]2C[C@@](C)(OC)[C@@H](O)[C@H](C)O2)[C@H](C)[C@@H](O[C@@H]2O[C@H](C)C[C@H](N(C)C)[C@H]2O)[C@](C)(O)C[C@@H](C)C(=O)[C@H](C)[C@@H](O)[C@]1(C)O [Erythromycin]
% Enhancement in bioavailability [1]: 70% | % Enhancement in bioavailability [2]: 80%

CCc1cc(C(N)=S)ccn1 [Ethionamide]
% Enhancement in bioavailability [1]: 120% | % Enhancement in bioavailability [2]: 110%

O=C(CCCN1CCC(O)(c2ccc(Cl)cc2)CC1)c1ccc(F)cc1 [Haloperidol]
% Enhancement in bioavailability [1]: 72% | % Enhancement in bioavailability [2]: 60%

NNC(=O)c1ccncc1 [Isoniazid]
% Enhancement in bioavailability [2]: 30%

CC(=O)N1CCN(c2ccc(OCC3COC(Cn4ccnc4)(c4ccc(Cl)cc4Cl)O3)cc2)CC1 (stereo not drawn) [Ketoconazole]
% Enhancement in bioavailability [1]: 77% | % Enhancement in bioavailability [2]: 85%

CN(Cc1cnc2nc(N)nc(N)c2n1)c1ccc(C(=O)N[C@@H](CCC(=O)O)C(=O)O)cc1 [Methotrexate]
% Enhancement in bioavailability [1]: 95% | % Enhancement in bioavailability [2]: 140%

CS(=O)(=O)Nc1ccc([N+](=O)[O-])cc1Oc1ccccc1 [Nimesulide]
% Enhancement in bioavailability [1]: 90% | % Enhancement in bioavailability [2]: 115%

CCn1cc(C(=O)O)c(=O)c2cc(F)c(N3CCNCC3)cc21 [Norfloxacin]
% Enhancement in bioavailability [1]: 45% | % Enhancement in bioavailability [2]: 55%

COc1ccc2[nH]c([S+]([O-])Cc3ncc(C)c(OC)c3C)nc2c1 (stereo not drawn) [Omeprazole]
% Enhancement in bioavailability [1]: 72% | % Enhancement in bioavailability [2]: 87%

CN1C(C(=O)Nc2ccccn2)=C(O)c2ccccc2S1(=O)=O [Piroxicam]
% Enhancement in bioavailability [1]: 76% | % Enhancement in bioavailability [2]: 100%

CC(C)NCC(O)COc1cccc2ccccc12 (stereo not drawn) [Propranolol]
% Enhancement in bioavailability [1]: 85% | % Enhancement in bioavailability [2]: 140%

CNC(=C[N+](=O)[O-])NCCSCc1ccc(CN(C)C)o1 [Ranitidine]
% Enhancement in bioavailability [1]: 95% | % Enhancement in bioavailability [2]: 95%

CO[C@H]1/C=C/O[C@@]2(C)Oc3c(C)c(O)c4c(O)c(c(/C=N/N5CCN(C)CC5)c(O)c4c3C2=O)NC(=O)/C(C)=C\C=C\[C@H](C)[C@H](O)[C@@H](C)[C@@H](O)[C@@H](C)[C@H](OC(C)=O)[C@@H]1C [Rifampicin]
% Enhancement in bioavailability [1]: 90% | % Enhancement in bioavailability [2]: 170%

CS(=O)(=O)c1ccc(C2=C(c3ccccc3)C(=O)OC2)cc1 [Rofecoxib]
% Enhancement in bioavailability [1]: 43% | % Enhancement in bioavailability [2]: 70%

CC(C)(C)NCC(O)c1ccc(O)c(CO)c1 (stereo not drawn) [Salbutamol]
% Enhancement in bioavailability [1]: 98% | % Enhancement in bioavailability [2]: 75%

C=CC[C@@H]1/C=C(\C)C[C@H](C)C[C@H](OC)[C@H]2O[C@@](O)(C(=O)C(=O)N3CCCC[C@H]3C(=O)O[C@H](/C(C)=C/[C@@H]3CC[C@@H](O)[C@H](OC)C3)[C@H](C)[C@@H](O)CC1=O)[C@H](C)C[C@@H]2OC [Tacrolimus]
% Enhancement in bioavailability [1]: 90% | % Enhancement in bioavailability [2]: 110%

Cn1c(=O)c2[nH]cnc2n(C)c1=O [Theophylline]
% Enhancement in bioavailability [1]: 75% | % Enhancement in bioavailability [2]: 95%

Cc1cn([C@H]2C[C@H](N=[N+]=[N-])[C@@H](CO)O2)c(=O)[nH]c1=O [Zidovudine]
% Enhancement in bioavailability [1]: 120% | % Enhancement in bioavailability [2]: 135%
